Experimental data: patent publication US12257264B2, “Combination therapy for HIV with adenosine derivative and capsid inhibitors” (Brii Biosciences, Inc., priority 2021, dated 2025)
Values joined by “and” are separate entries in the source; they are usually repeats but may differ in a detail not shown here. Equal entries are not always repeated.

Assay: Plasma exposures following IV infusion alone or in combination to Sprague-Dawley rats
Settings: for Lenacapavir Concentrations in Rat Plasma When Dosed with Prodrug formula 4-A: Lenacapavir IV infusion 1.0 mg/kg with Prodrug formula 4-A
Protocol: The pharmacokinetics of EFdA and prodrug formula 4-A, as well as lenacapavir were studied in rats after IV infusion administration alone or in combination at a dose of 1.0 mg/kg each.
Formulations: The prodrugs and lenacapavir were formulated alone or in combination as solutions at 1.0 mg/mL each in 20% […], 10% Solutol aqueous solution within 0.5 hour prior to dose.
Dose Administration and Sample Collection: The in-life phase of this study was conducted at the WuXi Apptec (WuXi) at Shanghai, China in accordance with the WuXi Institutional Animal Care and Use Committee (IACUC) standard animal procedures along with the IACUC guidelines that are in compliance with the Animal Welfare Act, the Guide for the Care and Use of Laboratory Animals. and was approved by the IACUA Committee. Male Sprague-Dawley rats (0.262+/−0.019 kg) were used for the studies. Each drug was administered as a single dose by 30-min IV infusion (1 ml/kg) alone or in combination. Plasma samples were collected at 0 (pre-dose), 5, 10, 15 and 30 min, 1, 2, 4, 7, 12 and 24 h post-dose. Blood (approximately 0.1 mL) was processed immediately for plasma by centrifugation at 3,200 g at 4° C. for 10 min within half an hour of collection. Plasma samples were frozen and maintained at −70° C. until analyzed. To stabilize the prodrug at the sample collection and subsequent analysis, the following stabilizing reagents were added to the blood collection K2EDTA tubes on wet ice prior to sample collection: for each 100 mL of blood, 10 mL of premade inhibitor cocktail consists of 600 mM Citric Acid, 400 mM PMSF, 400 mM NaF, and 400 mM Dichlorvos.
Determination of EFdA and Prodrugs in plasma: Briefly, plasma (20 μL) was mixed with 100 l acetonitrile to precipitate protein. Consistent with sample collection procedure, the same cocktail protocol was also added to stabilize the prodrug in the standard and QC samples.
Bioanalysis: A Sciex API-6500 Plus triplequadrupole mass spectrometer coupled with a Waters Acquity UPLC system (Framingham, MA 01701) was used for quantitative analysis of plasma samples. The column was a Waters HSS T3 column (2.1×50 mm, 1.8 micrometer). The mobile phases used were: A, 0.1% formic acid in water; B, 0.1% formic acid in acetonitrile. For the analysis of EFdA and prodrugs in plasma, the flow rate was 0.6 mL/min with a total run time of 2.0 min. […] Detection of the prodrug and EFdA were achieved using positive ion electrospray mass spectroscopic mode using unit resolution mode. Multiple reaction monitoring (MRM) modes were used to quantify both prodrug and EFdA, e.g. the MRM transition for EFdA was 294.0-154.2 Da, and the transition for prodrug 4-A was 449.3-164.9 Da. For the analysis of lenacapavir in plasma, the flow rate was 0.7 mL/min with a total run time of 1.5 min. The HPLC gradient was initiated at 95% A/5% B for 0.50 min, followed by linear gradient increase to […] over the next 0.2 min; the gradient was subsequently maintained at 100% of mobile B over the next 0.7 min before ramping down to 95% mobile phase A within the following 0.1 min. Detection of lenacapavir was achieved using positive ion electrospray mass spectroscopic mode using unit resolution mode. Multiple reaction monitoring (MRM) modes were used to quantify lenacapavir, e.g. the MRM transition for lenacapavir was 968.1-869.4 Da. Peak areas were integrated by the Sciex program Analyst®, version 1.6.3, operating on a Windows 7 computer where concentrations were determined by a weighted (1/x2) linear regression of peak area ratios (peak area of EFdA/peak area of corresponding IS) versus the nominal concentrations of the plasma calibration standards. Calculations were performed on unrounded numbers. Overall, Analyst® determined the precision and accuracy for the calibration standards and QC samples.

- Lenacapavir Concentrations in Rat Plasma When Dosed Alone (Lenacapavir IV infusion 1.0 mg/kg alone, 0.0830 hrs, individual animals): 485 ng/mL and 603 ng/mL and 667 ng/mL
- Lenacapavir Concentrations in Rat Plasma When Dosed Alone (Lenacapavir IV infusion 1.0 mg/kg alone, 0.167 hrs, individual animals): 845 ng/mL and 682 ng/mL and 734 ng/mL
- Lenacapavir Concentrations in Rat Plasma When Dosed Alone (Lenacapavir IV infusion 1.0 mg/kg alone, 0.250 hrs, individual animals): 810 ng/mL and 801 ng/mL and 894 ng/mL
- Lenacapavir Concentrations in Rat Plasma When Dosed Alone (Lenacapavir IV infusion 1.0 mg/kg alone, 0.500 hrs, individual animals): 612 ng/mL and 580 ng/mL and 984 ng/mL
- Lenacapavir Concentrations in Rat Plasma When Dosed Alone (Lenacapavir IV infusion 1.0 mg/kg alone, 1.00 hrs, individual animals): 166 ng/mL and 222 ng/mL and 240 ng/mL
- Lenacapavir Concentrations in Rat Plasma When Dosed Alone (Lenacapavir IV infusion 1.0 mg/kg alone, 2.00 hrs, individual animals): 104 ng/mL and 149 ng/mL and 164 ng/mL
- Lenacapavir Concentrations in Rat Plasma When Dosed Alone (Lenacapavir IV infusion 1.0 mg/kg alone, 4.00 hrs, individual animals): 102 ng/mL and 157 ng/mL and 195 ng/mL
- Lenacapavir Concentrations in Rat Plasma When Dosed Alone (Lenacapavir IV infusion 1.0 mg/kg alone, 12.0 hrs, individual animals): 79.4 ng/mL and 106 ng/mL and 139 ng/mL
- Lenacapavir Concentrations in Rat Plasma When Dosed Alone (Lenacapavir IV infusion 1.0 mg/kg alone, 24.0 hrs, individual animals): 123 ng/mL and 141 ng/mL and 139 ng/mL
- Lenacapavir Concentrations in Rat Plasma When Dosed with Prodrug formula 4-A (0.0830 hrs, individual animals): 460 ng/mL and 391 ng/mL and 314 ng/mL
- Lenacapavir Concentrations in Rat Plasma When Dosed with Prodrug formula 4-A (0.167 hrs, individual animals): 479 ng/mL and 589 ng/mL and 415 ng/mL
- Lenacapavir Concentrations in Rat Plasma When Dosed with Prodrug formula 4-A (0.250 hrs, individual animals): 623 ng/mL and 664 ng/mL and 375 ng/mL
- Lenacapavir Concentrations in Rat Plasma When Dosed with Prodrug formula 4-A (0.500 hrs, individual animals): 643 ng/mL and 714 ng/mL and 448 ng/mL
- Lenacapavir Concentrations in Rat Plasma When Dosed with Prodrug formula 4-A (1.00 hrs, individual animals): 170 ng/mL (2×) and 107 ng/mL
- Lenacapavir Concentrations in Rat Plasma When Dosed with Prodrug formula 4-A (2.00 hrs, individual animals): 135 ng/mL and 105 ng/mL and 94.7 ng/mL
- Lenacapavir Concentrations in Rat Plasma When Dosed with Prodrug formula 4-A (4.00 hrs, individual animals): 93.1 ng/mL and 101 ng/mL and 80.9 ng/mL
- concentration at 48 h (male, Sprague-Dawley, rat, in vivo, 1 mg/kg, Lenacapavir Concentrations in Rat Plasma When Dosed Alone): 107 ng/mL
- concentration at 0.083 h (male, Sprague-Dawley, rat, in vivo, 1 mg/kg, Lenacapavir Concentrations in Rat Plasma When Dosed Alone, Lenacapavir IV infusion 1.0 mg/kg alone, 0.0830 hrs, Mean): 612 ng/mL
- concentration at 0.083 h (male, Sprague-Dawley, rat, in vivo, 1 mg/kg, Lenacapavir Concentrations in Rat Plasma When Dosed Alone, Lenacapavir IV infusion 1.0 mg/kg alone, 0.0830 hrs, individual animals): 692 ng/mL
- concentration at 0.167 h (male, Sprague-Dawley, rat, in vivo, 1 mg/kg, Lenacapavir Concentrations in Rat Plasma When Dosed Alone, Lenacapavir IV infusion 1.0 mg/kg alone, 0.167 hrs, Mean): 739 ng/mL
- concentration at 0.167 h (male, Sprague-Dawley, rat, in vivo, 1 mg/kg, Lenacapavir Concentrations in Rat Plasma When Dosed Alone, Lenacapavir IV infusion 1.0 mg/kg alone, 0.167 hrs, individual animals): 694 ng/mL
- concentration at 0.25 h (male, Sprague-Dawley, rat, in vivo, 1 mg/kg, Lenacapavir Concentrations in Rat Plasma When Dosed Alone, Lenacapavir IV infusion 1.0 mg/kg alone, 0.250 hrs, Mean): 825 ng/mL
Structure (SMILES): CC(C)(C#Cc1ccc(-c2ccc(Cl)c3c(NS(C)(=O)=O)nn(CC(F)(F)F)c23)c([C@H](Cc2cc(F)cc(F)c2)NC(=O)Cn2nc(C(F)(F)F)c3c2C(F)(F)[C@@H]2C[C@H]32)n1)S(C)(=O)=O [Lenacapavir, reference compound]
- Lenacapavir Concentrations in Rat Plasma When Dosed Alone (Lenacapavir IV infusion 1.0 mg/kg alone, 7.00 hrs, individual animals): 185 ng/mL and 84.6 ng/mL and 141 ng/mL and 142 ng/mL
- Lenacapavir Concentrations in Rat Plasma When Dosed Alone (Lenacapavir IV infusion 1.0 mg/kg alone, 72.0 hrs, individual animals): 51.3 ng/mL and 59.7 ng/mL and 57.2 ng/mL and 110 ng/mL
- Lenacapavir Concentrations in Rat Plasma When Dosed with Prodrug formula 4-A (7.00 hrs, individual animals): 140 ng/mL and 101 ng/mL and 72.3 ng/mL and 58.8 ng/mL
- Lenacapavir Concentrations in Rat Plasma When Dosed with Prodrug formula 4-A (12.0 hrs, individual animals): 139 ng/mL and 137 ng/mL and 158 ng/mL and 78.6 ng/mL
- Lenacapavir Concentrations in Rat Plasma When Dosed with Prodrug formula 4-A (24.0 hrs, individual animals): 129 ng/mL and 164 ng/mL and 176 ng/mL and 62.5 ng/mL
- Lenacapavir Concentrations in Rat Plasma When Dosed with Prodrug formula 4-A (72.0 hrs, individual animals): 40.1 ng/mL and 97.8 ng/mL and 97.2 ng/mL and 98.0 ng/mL
